Test results taken from paper PMC8895377, “In Vivo Targeting Replication Protein A for Cancer Therapy” (Frontiers in Oncology, 2022).
Read-outs that look alike come from different tables or passages of the source.

Experiments:
[1] = tested on: H460 NSCLC cells; test: CCK-8 viability assay; assay type: cell-based, human; details: H460, 48 h, compared to 551 predecessor
Method: Cell lines were obtained from ATCC and maintained as monolayer cultures in RPMI 1640 medium (H460) or Dulbecco’s Modified Eagle's Medium (DMEM) (A549) supplemented with 10% fetal bovine serum. H460 and A549 cells were plated at 2.5 × 10^3 cells/well and A2780 and GCT27 cells plated at 5 × 10^3 cells/well in a 96-well plate and incubated for 18–24 h prior to treatments. Cells were treated with the indicated concentration of RPAi for 48 h. The vehicle (DMSO) concentration was held constant at 1%. Cell metabolism/viability was assessed by a mitochondrial metabolism assay (CCK-8) as we have described previously ([10]). The generation of the water-soluble formazan product by cellular dehydrogenases is proportional to the number of living cells. Following incubation with CCK-8 reagent, absorbance was measured at 450 nm with a BioTek Synergy H1 plate reader. Values were compared to those of vehicle-treated controls to determine percent viability, and the results represent the average and SEM of triplicate determinations.

[2] = tested on: H460 cells; test: Caspase 3/7 apoptosis assay; assay type: cell-based, human; details: H460, 24 h
Method: Apoptosis induction was determined by activation of Caspases 3 and 7 using the CellEvent™ Caspase-3/7 Green Detection Reagent (Invitrogen). H460 cells were plated at 5 × 10^3 cells/well in black 96-well plates with clear bottoms (Costar) and incubated for 24 h prior to treatments. Cells were treated with the indicated concentration of RPAi or cisplatin for 24 h. The vehicle (DMSO) concentration was held constant at 1% for RPAi treatments. For caspase 3/7 detection, medium was removed and replaced with phosphate buffered saline (PBS) containing 5% fetal bovine serum (FBS) and 2 µM CellEvent™ Caspase-3/7 Green Detection Reagent. Cells were incubated at 37°C/5% CO2 for 1 h, and fluorescence intensity was measured in a BioTek Synergy H1 plate reader (excitation/emission 485/528). Images were captured with an Evos FL2 Auto microscope (Invitrogen) using a 10× objective.
Figure 3 The 329 induction of apoptotic cell death. (A) Analysis of caspase 3/7 activity in H460 cells following 24 h of treatment with 1% DMSO or the indicated concentrations of 329. Fluorescence images were captured as described in the Materials and Methods. (B) Quantification of caspase 3/7 activity. Fluorescence was measured in 96-well plates using a Biotek Synergy H1 plate reader following 24-h incubation with the indicated drugs and concentrations.

[3] = tested on: 60 cancer cell lines; test: Cell viability in 60 cancer cell lines (CellTiter-Glo); assay type: cell-based; details: 72 h, most values, read-out: cellular IC50
Method: In this study, 90-µl cell suspensions were seeded in 96-well plates in respective culture medium with a final cell density of 4 × 10^3 cells/well and incubated overnight. Here, 10× solution of 329 (top working concentration: 40 µM of test article in media with 3.16-fold serial dilutions to achieve 9 dose levels) was prepared, and 10 µl of drug solution or culture medium containing 0.5% DMSO (vehicle control) was added to the plate (triplicate for each drug concentration). Plates were incubated for 72 h at 37°C with 5% CO2 and then measured by CellTiter-Glo assay (Promega). Briefly, plates were equilibrated at room temperature for 30 min, and 50 µl of CellTiter-Glo reagent was added to each well. Contents were mixed for 5 min on an orbital shaker to induce cell lysis, and plates were further incubated at room temperature for 20 min to stabilize the luminescent signal. Luminescence was recorded using EnVision Multi Plate Reader. Percent cell growth was calculated relative to DMSO-treated cells (vehicle control), and the data were fit using non-linear regression analysis (GraphPad PRISM) to calculate cellular IC50.
Figure 4 Cellular activity of 329 in 60 cancer cell lines. Cell lines were treated with a 4-log range of replication protein A inhibitor (RPAi) 329 for 72 h. Cell viability was assessed using CellTiter-Glo luminescent viability assay. […]

[4] = Pharmacokinetics in mice (plasma, HPLC-MS/MS); assay type: in vivo; details: for AUC(0-inf): read-out: AUC 0-inf_obs; for k el: read-out: Lambda_z (converted); for MRT inf: read-out: MRT 0-inf_obs
Method: A method to quantify 329 from plasma has been developed using an internal standard, liquid–liquid extraction, and HPLC-MS/MS. Mouse plasma samples were prepared from treated mice at the indicated times frozen at -80°C until analysis. Plasma samples were thawed (20 µl) and transferred to polypropylene tubes, and the internal standard is added (20 µl of 0.1 ng/µl). Samples were diluted in 0.1 M phosphate buffer (pH = 7.4) and equal volume of methyl tertiary butyl ether. The samples were mixed and centrifuged at 12,000×g for 5 min, and the supernatant was transferred to a clean polypropylene tube. The solvent was evaporated to dryness, brought up in mobile phase analyzed by HPLC-MS/MS (ABSciex 4000). The mobile phase is delivered via gradient using acetonitrile and 0.1% formic acid on an Agilent Zorbax 300SB-C8 150 × 4.6 mm, 5-µm column. The mass spectrometer utilized an electrospray ionization probe run in positive mode. Multiple reaction monitoring was employed with Q1/Q3 (m/z) transitions for 329 at 718.2/128.1 and 687.3/128.1 for the internal standard. The lower limit of quantification is 0.1 ng/ml using 20 µl of plasma.
PK parameters were assessed in a series of studies in immunocompetent mice both IV and IP ( Figure 7B and Table 4 ). […] The half-life was also well within acceptable range (9 h).

[5] = IP, DMSO vehicle, 200 mg/kg, mice
[6] = IP, NMP vehicle, 20 mg/kg, mice
[7] = IP, NMP vehicle, 200 mg/kg, mice
[8] = mouse, plasma, ip, 20 mg/kg, IP, NMP vehicle, 20 mg/kg, mice
[9] = mouse, plasma, ip, 20 mg/kg, NMP vehicle, mice
[10] = mouse, plasma, ip, 200 mg/kg, DMSO vehicle, mice
[11] = mouse, plasma, ip, 200 mg/kg, IP, DMSO vehicle, 200 mg/kg, mice
[12] = mouse, plasma, ip, 200 mg/kg, IP, NMP vehicle, 200 mg/kg, mice
[13] = mouse, plasma, ip, 200 mg/kg, NMP vehicle, mice
[14] = mouse, plasma, iv, 2 mg/kg, IV, NMP vehicle, 2 mg/kg, mice
[15] = mouse, plasma, iv, 2 mg/kg, NMP vehicle, mice

CCOc1ccc2cc(C3CC(c4ccc(I)cc4)=NN3C(=O)CCCC(=O)NCCCN3CCOCC3)c(Cl)nc2c1 (stereo not drawn) [compound 329]
single-agent cellular anticancer activity (CCK-8) [1]: potent single-agent activity | activation of caspases 3 and 7 [2]: induces cell death via a classical apoptotic pathway | IC50 [3]: 5 to 10 µM | AUC and Cmax compared to 551 ([4]; DMSO/Tween formulation, data not shown): significant reduction in AUC and Cmax | AUMC 0-inf_obs [4, 5]: 95023.52 ng/ml*h^2 | CI/F_obs [4, 5]: 0.0902 (mg/kg)/(ng/ml)/h | Vz/F_obs [4, 5]: 4.015 (mg/kg)/(ng/ml) | AUMC 0-inf_obs [4, 6]: 98489.24 ng/ml*h^2 | CI/F_obs [4, 6]: 0.0012 (mg/kg)/(ng/ml)/h | Vz/F_obs [4, 6]: 0.011 (mg/kg)/(ng/ml) | AUMC 0-inf_obs [4, 7]: 947545.56 ng/ml*h^2 | Vz/F_obs [4, 7]: 0.172 (mg/kg)/(ng/ml) | AUMC 0-inf_obs ([4]; IV, NMP vehicle, 2 mg/kg, mice): 1897.83 ng/ml*h^2 | CI/F_obs ([4]; IV, NMP vehicle, 2 mg/kg, mice): 0.0014 (mg/kg)/(ng/ml)/h | Vz/F_obs ([4]; IV, NMP vehicle, 2 mg/kg, mice): 0.007 (mg/kg)/(ng/ml) | bioavailability ([4]; mouse, plasma, intraperitoneal, IP at 20 mg/kg versus IV dosing, read-out: absolute bioavailability): 84% | AUC(0-inf) [4, 8]: 16500 ng·h/mL | k el [4, 8]: 3.06e-05 s⁻¹ | MRT inf [4, 8]: 5.98 h | half-life ([4]; mouse, plasma, ip, 20 mg/kg, IP, NMP vehicle, 20 mg/kg, mice, read-out: t1/2 (converted)): 6.3 h | AUC(0-t) [4, 9]: 16400 ng·h/mL | Cmax [4, 9]: 2510 ng/mL | Tmax [4, 9]: 2 h | AUC(0-t) [4, 10]: 968 ng·h/mL | Cmax [4, 10]: 92.1 ng/mL | Tmax [4, 10]: 0.25 h | AUC(0-inf) [4, 11]: 2220 ng·h/mL | k el [4, 11]: 5.56e-06 s⁻¹ | MRT inf [4, 11]: 42.8 h | half-life ([4]; mouse, plasma, ip, 200 mg/kg, IP, DMSO vehicle, 200 mg/kg, mice, read-out: t1/2 (converted)): 30.9 h | AUC(0-inf) [4, 12]: 64300 ng·h/mL | k el [4, 12]: 1.94e-05 s⁻¹ | MRT inf [4, 12]: 14.7 h | half-life ([4]; mouse, plasma, ip, 200 mg/kg, IP, NMP vehicle, 200 mg/kg, mice, read-out: t1/2 (converted)): 9.31 h | half-life ([4]; mouse, plasma, ip, 200 mg/kg, IP, new formulation, 200 mg/kg, read-out: half-life (converted)): 9 h | AUC(0-t) [4, 13]: 52000 ng·h/mL | Cmax [4, 13]: 2910 ng/mL | Tmax [4, 13]: 8 h | AUC(0-inf) [4, 14]: 1410 ng·h/mL | k el [4, 14]: 5.83e-05 s⁻¹ | MRT inf [4, 14]: 1.35 h | half-life ([4]; mouse, plasma, iv, 2 mg/kg, IV, NMP vehicle, 2 mg/kg, mice, read-out: t1/2 (converted)): 3.28 h | AUC(0-t) [4, 15]: 1400 ng·h/mL | Cmax [4, 15]: 841 ng/mL | Tmax [4, 15]: 0.5 h
